Legend:
[1] = molecular target: T1, human mAChR M4 (Homo sapiens, UniProt P08173); assay: mAChR M4 cell-based functional assay (calcium flux, antagonism of EC80 acetylcholine response, M4/Gqi5/CHO-K1 cells); settings: for remaining activity at 30 µM: CHO-K1, % ACh maximum at 30 μM, read-out: Human M4 Emin; for IC50: decrease of the response elicited by an EC80 concentration of acetylcholine, CHO-K1 cells, Gqi5
T1 construct: expressed in transfected cells; host or cells: CHO-K1 (ATCC), co-transfected with chimeric G protein Gqi5
T1 sequence (P08173 1-479): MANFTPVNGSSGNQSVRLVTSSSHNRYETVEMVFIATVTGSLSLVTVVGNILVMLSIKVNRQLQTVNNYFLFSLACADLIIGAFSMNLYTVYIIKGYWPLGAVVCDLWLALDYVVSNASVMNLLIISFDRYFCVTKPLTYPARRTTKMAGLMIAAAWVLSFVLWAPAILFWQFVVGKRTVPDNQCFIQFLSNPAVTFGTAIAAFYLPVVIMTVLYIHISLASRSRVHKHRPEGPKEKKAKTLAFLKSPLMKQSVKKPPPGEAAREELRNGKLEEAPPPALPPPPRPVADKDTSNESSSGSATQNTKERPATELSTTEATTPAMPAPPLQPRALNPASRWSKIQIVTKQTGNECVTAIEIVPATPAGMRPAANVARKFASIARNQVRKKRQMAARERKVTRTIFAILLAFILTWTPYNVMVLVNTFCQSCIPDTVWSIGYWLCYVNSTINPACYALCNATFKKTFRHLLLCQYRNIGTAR
How it was run: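 CHO-K1 cells stably expressing human M4 with chimeric Gqi5, loaded with Fluo-4 AM; calcium flux read on FDSS. Compounds (10-point, 1:3 curves) added first, then EC20 acetylcholine at 143 s and EC80 at 268 s. IC50 from decrease of EC80 acetylcholine response, four-parameter logistic fit.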

[2] = test system: mice; assay: haloperidol-induced catalepsy, a model of parkinsonian motor disability; assay type: in vivo
Source text: Furthermore, haloperidol-induced catalepsy, a model of parkinsonian motor disability, is reduced in M4 knockout mice as compared to wild-type controls. […] The reversal by scopolamine was uncommonly robust and more pronounced than we observe with agents targeting a number of other targets being evaluated for potential antiparkinsonian effects, including metabotropic glutamate (mGlu) receptors mGlu4 or mGlu5, A2A adenosine receptors, and NMDA receptors. […] Taken together with the extensive studies of M4 modulation of basal ganglia and motor function, these studies provide compelling evidence that M4 is the dominant mAChR subtype involved in the antiparkinsonian effects of non-selective mAChR antagonists and provide support for discovery and development of selective M4 antagonists for treatment of neurodegenerative disease such as PD, dystonia, tardive dyskinesia and other movement disorders.

Row | Structure (SMILES) | remaining activity at 30 µM [1] [%] | IC50 [1] [nM] | reduction of catalepsy induced by haloperidol ([2]; M4 KO mice) | reversal of catalepsy induced by haloperidol ([2]; WT mice)
1 | [2H]C([2H])(C1CCOCC1(C)C)N1C[C@H]2C[C@H](Nc3ccc(-c4cccnc4C(F)(F)F)nn3)C[C@H]2C1 (stereo partly drawn) [Compound 53, (3aR,5s,6aS)-2-((3,3-dimethyltetrahydro-2H-pyran-4-yl)methyl-d2)-N-(6-(2-(trifluoromethyl)pyridin-3-yl)pyridazin-3-yl)octahydrocyclopenta[c]pyrrol-5-amine] | 3 | 2.9 |  | 
2 | [2H]C([2H])(N1C[C@H]2C[C@H](Nc3ccc(-c4cccnc4C(F)(F)F)nn3)C[C@H]2C1)C12COC(C)(C1)C2 [Compound 55, (3aR,5s,6aS)-2-((1-methyl-2-oxabicyclo[2.1.1]hexan-4-yl)methyl-d2)-N-(6-(2-(trifluoromethyl)pyridin-3-yl)pyridazin-3-yl)octahydrocyclopenta[c]pyrrol-5-amine] | 3 | 5.5 |  | 
3 | [2H]C([2H])(C1CCOC2(CCC2)C1)N1C[C@H]2C[C@H](Nc3ccc(-c4cccnc4C(F)(F)F)nn3)C[C@H]2C1 (stereo partly drawn) [Compound 60, (3aR,5s,6aS)-2-((5-oxaspiro[3.5]nonan-8-yl)methyl-d2)-N-(6-(2-(trifluoromethyl)pyridin-3-yl)pyridazin-3-yl)octahydrocyclopenta[c]pyrrol-5-amine] | 4 | 1.4 |  | 
4 | CN1[C@@H]2C[C@@H](OC(=O)[C@H](CO)c3ccccc3)C[C@H]1[C@@H]1O[C@@H]12 [scopolamine] |  |  | ineffective in reducing catalepsy | completely reversed

Second part, led by results:

Row | remaining activity at 30 µM [1] [%] | IC50 [1] [nM] | Structure (SMILES) | reduction of catalepsy induced by haloperidol ([2]; M4 KO mice) | reversal of catalepsy induced by haloperidol ([2]; WT mice)
5 | 1 | 0.88 | [2H]C([2H])(C1CCOCC1)N1C[C@H]2C[C@H](Nc3nnc(-c4cccnc4C(F)(F)F)cc3C)C[C@H]2C1 [Compound 50, (3aR,5s,6aS)-N-(4-methyl-6-(2-(trifluoromethyl)pyridin-3-yl)pyridazin-3-yl)-2-((tetrahydro-2H-pyran-4-yl)methyl-d2)octahydrocyclopenta[c]pyrrol-5-amine] |  | 
6 | 2 | 1.4 | [2H]C([2H])([C@H]1COCCO1)N1C[C@H]2C[C@H](Nc3ccc(-c4cccnc4C(F)(F)F)nn3)C[C@H]2C1 [Compound 51, (3aR,5s,6aS)-2-(((S)-1,4-dioxan-2-yl)methyl-d2)-N-(6-(2-(trifluoromethyl)pyridin-3-yl)pyridazin-3-yl)octahydrocyclopenta[c]pyrrol-5-amine] |  | 
7 | 2 | 0.58 | [2H]C([2H])(C1CCCOCC1)N1C[C@H]2C[C@H](Nc3ccc(-c4cccnc4C(F)(F)F)nn3)C[C@H]2C1 (stereo partly drawn) [Compound 52, (3aR,5s,6aS)-2-(oxepan-4-ylmethyl-d2)-N-(6-(2-(trifluoromethyl)pyridin-3-yl)pyridazin-3-yl)octahydrocyclopenta[c]pyrrol-5-amine] |  | 
8 | 2 | 0.69 | [2H]C([2H])(C1CC2(CC2)CO1)N1C[C@H]2C[C@H](Nc3ccc(-c4cccnc4C(F)(F)F)nn3)C[C@H]2C1 (stereo partly drawn) [Compound 54, (3aR,Ss,6aS)-2-((5-oxaspiro[2.4]heptan-6-yl)methyl-d2)-N-(6-(2-(trifluoromethyl)pyridin-3-yl)pyridazin-3-yl)octahydrocyclopenta[c]pyrrol-5-amine] |  | 

From US20240109873A1, “ANTAGONISTS OF THE MUSCARINIC ACETYLCHOLINE RECEPTOR M4” (Vanderbilt University, priority 2020, published 2024)
